Experimental findings from PubChem BioAssay (NCI) are described below.

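48-hour exposure; five concentrations; linearly interpolated endpoints. GI50: concentration for 50% inhibition of growth. TGI is the concentration that stops growth completely.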

Test systems include 786-0 renal; DU-145 prostate; MDA-MB-231 breast; MOLT-4 leukemia; NCI-H460 lung; NCI/ADR-RES ovarian; OVCAR-8 ovarian; PC-3 prostate; SF-268 CNS; UACC-62 melanoma.
Common to all, as to test: NCI anticancer screen, dose series, 48 h

For the compound `COc1ccc(C(=O)/C=C/c2c(C(F)(F)F)nc3ccccn23)cc1OC`, the GI50 in the experiment with 786-0 renal was 2.26 µM; in the experiment with DU-145 prostate, 1.3 µM; with MDA-MB-231 breast, 3.06 µM; in the experiment with MOLT-4 leukemia it was 0.711 µM; in the experiment with NCI-H460 lung, 0.933 µM; in the experiment with NCI/ADR-RES ovarian, 0.877 µM. Also, the GI50 in the experiment with OVCAR-8 ovarian is 1.06 µM; in the experiment with PC-3 prostate, 2.73 µM; with SF-268 CNS it was 2.07 µM. Moreover, the TGI with 786-0 renal was over 100 µM; in the experiment on MDA-MB-231 breast, 8.55 µM; with MOLT-4 leukemia, 3.24 µM; in the experiment with NCI-H460 lung it was 2.99 µM; with NCI/ADR-RES ovarian, 6.25 µM; in the experiment with OVCAR-8 ovarian it was over 25.1 µM. Also, the figures for the TGI in the experiment on PC-3 prostate, in the experiment on SF-268 CNS and with UACC-62 melanoma were over 100 µM, over 24.7 µM and over 100 µM, respectively.

Regarding `COc1ccc2c(c1)C(=O)/C(=C/c1cccc(OCC(=O)c3ccc([N+](=O)[O-])cc3)c1)CO2`, the GI50 in the experiment with 786-0 renal is 2 µM; in the experiment with DU-145 prostate it was 2.73 µM; with MDA-MB-231 breast, 3.67 µM; in the experiment on MOLT-4 leukemia, 3.03 µM; with NCI-H460 lung it was 3.2 µM; in the experiment on NCI/ADR-RES ovarian, 2.03 µM. Besides, the GI50 in the experiment on OVCAR-8 ovarian was 2.85 µM; with PC-3 prostate it was 2.13 µM; with SF-268 CNS, 2.7 µM; with UACC-62 melanoma, 2.82 µM. The TGI with 786-0 renal worked out at 4.83 µM; in the experiment on DU-145 prostate, 7.14 µM; in the experiment on MDA-MB-231 breast, 14.2 µM; with MOLT-4 leukemia, 17.9 µM; in the experiment on NCI-H460 lung, 11.6 µM; with NCI/ADR-RES ovarian it was 5.02 µM. The TGI with OVCAR-8 ovarian came out at 9.66 µM; in the experiment with PC-3 prostate it was 7.95 µM; in the experiment on SF-268 CNS, 7.74 µM; in the experiment on UACC-62 melanoma it was 9.36 µM.

On to `O=c1oc2ccc(I)cc2c(=O)n1-c1ccc(I)cc1F`, for which the GI50 in the experiment on 786-0 renal was 2.21 µM; in the experiment on DU-145 prostate, 0.684 µM; with MDA-MB-231 breast, 0.579 µM; with MOLT-4 leukemia it was 1.35 µM; in the experiment with NCI-H460 lung, 0.429 µM; with NCI/ADR-RES ovarian, 0.568 µM. For the same compound, the GI50 in the experiment with OVCAR-8 ovarian is 0.704 µM; in the experiment on PC-3 prostate it was 2.23 µM; in the experiment on SF-268 CNS, 0.511 µM; with UACC-62 melanoma, 0.279 µM. In addition, the TGI was determined as 6.49 µM in the experiment on 786-0 renal; 17.9 µM in the experiment on DU-145 prostate; 6.14 µM in the experiment with MDA-MB-231 breast; 4.94 µM in the experiment with MOLT-4 leukemia; 10.3 µM in the experiment with NCI-H460 lung; 5.69 µM with NCI/ADR-RES ovarian. The TGI in the experiment with OVCAR-8 ovarian is over 31.7 µM; in the experiment with PC-3 prostate, 7.35 µM; with SF-268 CNS it was 7.64 µM; in the experiment with UACC-62 melanoma it was 1.11 µM.

`C=C1C(=O)O[C@H]2[C@H]1CC/C(CNC(=O)C(C)c1ccc(CC(C)C)cc1)=C\CC[C@@]1(C)O[C@@H]21` (stereo partly drawn): the GI50 was 1.76 µM in the experiment on 786-0 renal; 1.49 µM in the experiment with DU-145 prostate; 1.96 µM with MDA-MB-231 breast; 2.39 µM in the experiment with MOLT-4 leukemia; 1.94 µM in the experiment with NCI-H460 lung; 2.07 µM in the experiment with NCI/ADR-RES ovarian. Besides, the GI50 in the experiment with OVCAR-8 ovarian is 1.88 µM; in the experiment on PC-3 prostate it was 1.77 µM; with SF-268 CNS, 1.74 µM; with UACC-62 melanoma, 1.67 µM. In addition, the TGI amounted to 3.36 µM in the experiment on 786-0 renal; 2.85 µM in the experiment on DU-145 prostate; 4 µM in the experiment on MDA-MB-231 breast; 9.66 µM in the experiment on MOLT-4 leukemia; 3.97 µM in the experiment with NCI-H460 lung; 5.47 µM with NCI/ADR-RES ovarian. The TGI in the experiment on OVCAR-8 ovarian turned out to be 5.96 µM; with PC-3 prostate, 3.82 µM; with SF-268 CNS, 3.58 µM; with UACC-62 melanoma, 3.38 µM.

As for `CCc1nc(N)nc(N)c1-c1ccc(N(C)Cc2ccccc2)c([N+](=O)[O-])c1`, the TGI was 30.3 µM in the experiment with 786-0 renal; 31.7 µM with DU-145 prostate; 36.1 µM with MDA-MB-231 breast; 8.11 µM in the experiment on MOLT-4 leukemia; 8.72 µM in the experiment on NCI-H460 lung; 21.4 µM in the experiment with NCI/ADR-RES ovarian. Also, the TGI worked out at 30 µM in the experiment with OVCAR-8 ovarian, 16.6 µM in the experiment with PC-3 prostate, 37.9 µM with SF-268 CNS and 13 µM with UACC-62 melanoma.

For `O=[N+]([O-])c1cc(C(F)(F)F)cc2n[se]nc12`, the TGI is 4.85 µM in the experiment on 786-0 renal; 6.66 µM with DU-145 prostate; 5.84 µM in the experiment on MDA-MB-231 breast; over 45.2 µM in the experiment on MOLT-4 leukemia; 26.6 µM with NCI-H460 lung; 5.11 µM in the experiment with NCI/ADR-RES ovarian. The TGI with OVCAR-8 ovarian amounted to 4.25 µM; in the experiment on PC-3 prostate, 8.32 µM; in the experiment on SF-268 CNS, 15.3 µM; in the experiment on UACC-62 melanoma, 15 µM.

On to `COc1cc(C(=O)c2cnc(-c3ccc4cc[nH]c4c3)[nH]2)cc(OC)c1OC`, for which the GI50 is 0.0419 µM with 786-0 renal; 0.0363 µM in the experiment on DU-145 prostate; 0.0609 µM in the experiment with MDA-MB-231 breast; 0.0597 µM in the experiment on MOLT-4 leukemia; 0.0376 µM in the experiment on NCI-H460 lung; 0.0371 µM in the experiment on NCI/ADR-RES ovarian. Besides, the GI50 is 0.0484 µM in the experiment on OVCAR-8 ovarian, 0.0286 µM in the experiment on PC-3 prostate, 0.0808 µM with SF-268 CNS and 0.0244 µM with UACC-62 melanoma. In addition, the TGI amounted to 2.34 µM in the experiment on 786-0 renal; 11.1 µM in the experiment with DU-145 prostate; 1.44 µM in the experiment with MDA-MB-231 breast; 15.6 µM with MOLT-4 leukemia; 11.5 µM in the experiment with NCI-H460 lung; 56 µM in the experiment on NCI/ADR-RES ovarian. The TGI came out at 11.5 µM in the experiment with OVCAR-8 ovarian, 15.1 µM with PC-3 prostate, 7.19 µM in the experiment on SF-268 CNS and 13.8 µM in the experiment on UACC-62 melanoma.

Consider `COc1ccc2[nH]cc(C3(c4c[nH]c5ccc(OC)cc45)C(=O)Nc4ccc(Cl)cc43)c2c1`, for which the GI50 was 4.43 µM in the experiment on 786-0 renal; 4.73 µM in the experiment with DU-145 prostate; 2.08 µM with MDA-MB-231 breast; 4.12 µM with MOLT-4 leukemia; 3.18 µM in the experiment on NCI-H460 lung; 9.98 µM with NCI/ADR-RES ovarian. Further, the GI50 with OVCAR-8 ovarian is 3.36 µM; in the experiment on PC-3 prostate, 3.96 µM; in the experiment with SF-268 CNS, 4.81 µM; with UACC-62 melanoma, 3.61 µM. Also, the TGI in the experiment with 786-0 renal was 83.9 µM; with DU-145 prostate, 29.2 µM; with MDA-MB-231 breast, 5.43 µM; in the experiment on MOLT-4 leukemia it was 21.1 µM; in the experiment on NCI-H460 lung, 10.1 µM; in the experiment with NCI/ADR-RES ovarian, over 100 µM. The TGI in the experiment on OVCAR-8 ovarian is 18.7 µM; in the experiment on PC-3 prostate, 38.4 µM; in the experiment with SF-268 CNS, 57.9 µM; with UACC-62 melanoma, over 100 µM.
